pIC50, pKd: −log10 of the molar value. Like-named read-outs stand apart in the source and are kept apart here.
Assays:
[1] = molecular target: T1, zPaqr5b (zebrafish Paqr5b) (Danio rerio, UniProt Q6DC77); test: competition with [3H]-progesterone, filter binding
T1 construct: full-length CDS in pPICZalphaC; alpha-factor pre-pro signal N-terminal (major purified band 55 kDa keeps it, 45 kDa band Kex2-cut), C-terminal c-Myc and 6xHis kept; Pichia pastoris X-33; DDM-solubilized, purified by Ni-NTA and Sephacryl S-300
T1 sequence (Q6DC77 1-347): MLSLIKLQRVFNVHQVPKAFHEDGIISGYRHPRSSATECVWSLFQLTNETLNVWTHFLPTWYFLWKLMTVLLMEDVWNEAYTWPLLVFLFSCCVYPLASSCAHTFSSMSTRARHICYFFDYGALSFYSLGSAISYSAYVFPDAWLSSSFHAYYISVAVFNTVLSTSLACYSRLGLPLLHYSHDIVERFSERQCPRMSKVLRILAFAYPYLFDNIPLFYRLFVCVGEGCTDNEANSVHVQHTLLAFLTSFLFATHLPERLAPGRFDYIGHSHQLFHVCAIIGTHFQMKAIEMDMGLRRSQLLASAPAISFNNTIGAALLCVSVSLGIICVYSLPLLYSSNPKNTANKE
From the text: competition with [3H]-progesterone, filter binding on zPaqr5b (zebrafish Paqr5b)

[2] = molecular target: T1, zPaqr5b (zebrafish Paqr5b); test: radioligand saturation, filter binding, Scatchard

CC(=O)[C@H]1CC[C@H]2[C@@H]3CC[C@H]4C[C@H](O)CC[C@]4(C)[C@H]3CC[C@]12C [ALLO, allopregnanolone]
pIC50 [1]: 7.60

C[C@@H](O)[C@@]1(O)CC[C@H]2[C@@H]3CCC4=CC(=O)CC[C@]4(C)[C@H]3CC[C@@]21C [DHP, 17α,20β-dihydroxy-4-pregnen-3-one]
pIC50 ([1]; read-out: IC50): 7.72

CC(=O)[C@H]1CC[C@H]2[C@@H]3CCC4=CC(=O)CC[C@]4(C)[C@H]3CC[C@]12C [P4, progesterone]
pIC50 ([1]; read-out: IC50): 8.27 | pKd [2]: 8.34

CC(=O)[C@H]1CC[C@H]2[C@@H]3CC=C4C[C@@H](O)CC[C@]4(C)[C@H]3CC[C@]12C [Preg, pregnenolone]
pIC50 ([1]; read-out: IC50): 7.42

Reference: paper PMC11999305, “Biochemical characterization of zebrafish Paqr5b” (Biochemistry and Biophysics Reports, 2025)
